{"source": "patent US11167007B2", "about": "“FOXM1 modulators and uses thereof” (City of Hope, priority 2016, dated 2021)", "biological_target": "T1, AR (Homo sapiens, UniProt P10275)", "T1 sequence (P10275 1-920)": "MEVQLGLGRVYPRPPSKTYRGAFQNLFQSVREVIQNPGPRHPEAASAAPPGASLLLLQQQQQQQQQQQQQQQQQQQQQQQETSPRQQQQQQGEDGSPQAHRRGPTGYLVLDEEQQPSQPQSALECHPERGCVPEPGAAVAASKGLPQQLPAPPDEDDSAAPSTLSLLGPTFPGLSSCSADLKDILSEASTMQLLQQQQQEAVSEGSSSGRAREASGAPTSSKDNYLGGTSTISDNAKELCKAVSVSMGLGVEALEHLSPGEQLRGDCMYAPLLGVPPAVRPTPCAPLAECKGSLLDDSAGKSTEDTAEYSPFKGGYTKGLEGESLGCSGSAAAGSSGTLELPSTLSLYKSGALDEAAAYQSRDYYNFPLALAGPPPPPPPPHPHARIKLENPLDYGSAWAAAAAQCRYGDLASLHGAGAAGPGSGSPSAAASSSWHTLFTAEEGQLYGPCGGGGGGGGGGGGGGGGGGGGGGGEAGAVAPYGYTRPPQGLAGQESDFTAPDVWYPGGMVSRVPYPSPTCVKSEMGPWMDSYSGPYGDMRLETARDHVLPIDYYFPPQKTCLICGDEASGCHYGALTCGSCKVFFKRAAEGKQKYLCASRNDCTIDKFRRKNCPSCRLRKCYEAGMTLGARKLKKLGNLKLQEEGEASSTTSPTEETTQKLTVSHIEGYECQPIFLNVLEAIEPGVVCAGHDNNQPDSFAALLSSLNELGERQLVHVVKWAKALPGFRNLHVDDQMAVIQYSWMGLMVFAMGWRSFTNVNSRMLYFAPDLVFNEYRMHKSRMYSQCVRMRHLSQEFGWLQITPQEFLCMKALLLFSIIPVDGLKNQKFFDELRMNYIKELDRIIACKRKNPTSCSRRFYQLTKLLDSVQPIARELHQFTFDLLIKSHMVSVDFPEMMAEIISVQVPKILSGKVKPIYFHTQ", "assay": "FRET-based AR conformation change reporter (CARY) in LNCaP C4 prostate cells", "type": "cell-based", "parameters": "Full length AR with cyan fluorescent protein (CFP) or yellow fluorescent protein (YFP) fused to either end (CARY); expressed in transfected cells", "settings": "LNCaP C4 prostate cancer cells", "experimental": "Creation of stable C-AR-Y reporter cell lines. Cell lines listed above were either transfected with a plasmid or a virus containing the CFP-AR-YFP construct preceding an IRES and hygromycin resistance gene and clonal stable cell lines selected. Qualification criteria for the transfected cell lines were described by Jones et al, ACS Chem Biol, 3(7):412-8 (2008).\nScreen for AR-modulators. Screening was performed essentially as described by Jones et al, ACS Chem Biol, 3(7):412-8 (2008). Briefly, C-AR-Y reporter GTI-7 were transferred to 96 well plates and treated with library compounds for 24 hours. […] The compounds to be tested were from the NCI/DTP Open Chemical Repository's Approved Oncology Drugs Set II, Diversity Set II and Mechanistic Set. […] After 24 hours, medium was aspirated and FRET was measured as previously described using a monochromator-based fluorescence plate reader (M1000, Tecan, Inc.). Jones et al, ACS Chem Biol, 3(7):412-8 (2008). […]\nIn order to identify potential cell-type selective AR modulators, the FRET-based assay of AR conformation change was utilized. […] This produces an accurate and quantifiable read-out of AR activity. […] Candidate hits were then further evaluated by dose response. […] In addition to FRET, AR transcriptional activity was also assessed in several cell lines by transfecting cells with a luciferase reporter driven by the human PSA promoter. […]"}
{"smiles": "C=C(NC(=O)C(=C)NC(=O)c1csc(C2=N[C@@H]3c4csc(n4)[C@H]4NC(=O)c5csc(n5)[C@H]([C@](C)(O)[C@@H](C)O)NC(=O)[C@H]5CSC(=N5)/C(=C/C)NC(=O)[C@H]([C@@H](C)O)NC(=O)c5csc(n5)[C@]3(CC2)NC(=O)[C@H](C)NC(=O)C(=C)NC(=O)C(=C)NC(=O)[C@H](C(C)C)N[C@@H]2C=Cc3c([C@H](C)O)cc(nc3[C@H]2O)C(=O)O[C@@H]4C)n1)C(N)=O", "note": "[NSC285116, siomycin A]", "values": [{"measurement": "AR inhibitor activity in words", "setting": "listed as Siomycin A", "value": "little to no activity"}, {"measurement": "AR inhibitor activity in words", "setting": "listed as siomycin", "value": "not as sensitive"}]}
